In brackets after ≈: the same amount, converted by molar mass. Several values for one entry are separate records, joined by “and”; a condition that tells them apart may be missing. Identical values can stand only once. Like-named read-outs stand apart in the source and are kept apart here.
Experiments:
PR10-10 [1] = molecular target: T1, PR10-10 (Papaver somniferum, UniProt A0A9Y2YA81); test: Isothermal titration calorimetry; assay type: binding; conditions: for Kd: ITC
T1 sequence (A0A9Y2YA81 1-158): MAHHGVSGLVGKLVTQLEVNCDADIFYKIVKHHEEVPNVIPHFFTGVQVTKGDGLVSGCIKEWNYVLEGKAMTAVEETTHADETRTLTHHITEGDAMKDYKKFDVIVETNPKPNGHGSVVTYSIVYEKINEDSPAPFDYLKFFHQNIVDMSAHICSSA
Procedure: (§1) ITC experiments were conducted using a Microcal VP instrument (Malvern Pananalytical, Malvern, UK). […] Eluates were twice dialysed to equilibrium (i.e., 10–12 h at 4 °C) against a 1000-fold (2–4 L) volume of PBS, pH 7.4 (25 mM sodium phosphate, 50 mM NaCl) or CBS, pH 5.5, resulting in a theoretical million-fold dilution of undesired small molecules (e.g., <0.2 µM imidazole). Dialysis was carried out in boiled Spectra/Por 1 6–8 kDa MWCO 0.32 ml/cm (Spectrum Labs, USA) tubing thoroughly washed with either buffer before use. The second 1000-fold volume of dialysis buffer was filtered and degassed using a reusable bottle-top filtration apparatus (Nalgene, USA) with disposable […] cellulose filters (VWR, Canada) prior to storage at 4 °C. Ligands were dissolved in the filtered dialysis buffer at 21 °C for approximately one hour, and any insoluble material was removed by repeated centrifugation at 21,000 × g for 10 min. […] Prior to ITC, which was initiated immediately following dialysis, the protein solutions were centrifuged at 17,000 × g and 4 °C for 30 min. Any precipitate was separated from the remaining soluble protein fraction which was quantified by absorption at A280nm and diluted with filtered dialysis buffer immediately before use.
(§2) Thermograms were recorded at 25 °C, with a reference power of 10 (dpu/sec) and monitoring of 30 injections of 9 µl BIA ligand solutions into a sample cell containing 1.4 ml of an MLP/PR10 protein solution, with 300 seconds between injections. […] To ensure that we report only the heat of reaction for each interaction, independent titrations of ligand into buffer, and buffer into protein solutions, were used to calculate and then subtract heats of dilution. After subtraction, binding isotherms were analyzed in MicroCal Origin 7 (MicroCal, USA) by fitting a single-site binding model using non-linear least squares regression analysis repeated until convergence. […] Each ITC experiment was repeated 2 to 4 times.

MLP15 = molecular target: T2, MLP15 (Papaver somniferum, UniProt P19825); test: ANS displacement assay; conditions: for IC50: IC50, MLP15; for IC50 / Log10IC50: 10 µM protein and 10 µM ANS, CBS pH 5.5; for Log10IC50 / Hill Slope: MLP15; for Hill Slope: ANS displacement dose-response fit
T2 sequence (P19825 1-159): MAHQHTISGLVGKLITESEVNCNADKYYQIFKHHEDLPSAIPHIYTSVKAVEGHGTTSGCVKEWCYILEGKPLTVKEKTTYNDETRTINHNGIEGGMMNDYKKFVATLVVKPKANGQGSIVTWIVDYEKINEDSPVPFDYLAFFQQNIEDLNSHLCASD
Procedure: (§5) 8-anilino-1-naphthalenesulfonic acid (ANS) fluorescence binding curves and the binding-induced reduction in ANS fluorescence resulting from competition with tested ligands across a range of concentration facilitated the measurement of IC50 and an estimate of Kd values using the binding models and procedures described previously[70]. […] ANS was dissolved in dimethylsufoxide at a concentration of 20 mM, stored at −20 °C until dilution and protected from exposure to light. […] 40 µl of the ANS solution and 40 µl of each MLP/PR10 protein solution were combined to 80 µl final reaction volumes, which were incubated at 21 °C for 10 min to allow equilibration of binding. Triplicate 18-µl aliquots were withdrawn from each 80 µl reaction, transferred to optically clear PCR tubes (Diamed, Canada) and ANS fluorescence was measured following an additional 3-min incubation at 30 °C using a Qiagen Rotor-gene Q 6-plex with excitation and emission filters of 365 ± 20 nm and 460 ± 20 nm, respectively. An identical reaction series whereby protein was omitted from the mixtures was measured under identical conditions and trace fluorescence was subtracted from each MLP/PR10 protein-containing sample. Each data set was scaled so that the maximum observed fluorescence corresponded to 100% and individual data points were plotted, and a rectangular hyperbolic ligand binding function was fit, using least-squares analysis (Prism 5 software, Graphpad, USA). Experiments were repeated at least twice with independently prepared protein.
(§6) Displacement of ANS is associated with reduced fluorescence. […] Briefly, 40 µl of 20 µM ANS and individual MLP/ PR10 protein solutions were combined in CBS buffer, pH 5.5, incubated at 21 °C for 5 min, mixed with 40 µl of separate 0 to 6 mM BIA solutions in CBS buffer, pH 5.5, and the 80 µl reactions were subsequently incubated for 10 min at 21 °C. Fluorescence was measured as described above, including subtraction of any fluorescence in a blank series whereby protein was omitted. […] Each experiment was repeated at least twice with independently prepared MLP/PR10 proteins and BIA ligand.

NISO [2] = molecular target: T3, NISO (Papaver somniferum, UniProt P0DYP9); test: ANS displacement assay; conditions: for IC50: IC50, NISO; for IC50 / Log10IC50: 10 µM protein and 10 µM ANS, CBS pH 5.5; for Log10IC50 / Hill Slope: NISO; for Hill Slope: ANS displacement dose-response fit
Procedure: as §5, §6

MLP2 = test: ANS displacement assay; assay type: binding, Papaver somniferum; conditions: for IC50 / Log10IC50: 10 µM protein and 10 µM ANS, CBS pH 5.5; for Kd: from average IC50 and PR10-ANS Kd, competitive inhibition assumed, read-out: Estimated Kd
Excerpt: (§3) Eluates were store separately on ice.
(§4) Displacement of ANS is associated with reduced fluorescence.

PR10-4 = test: ANS displacement assay; assay type: binding, Papaver somniferum; conditions: for IC50 / Log10IC50: 10 µM protein and 10 µM ANS, CBS pH 5.5; for Kd: from average IC50 and PR10-ANS Kd, competitive inhibition assumed, read-out: Estimated Kd
Excerpt: as §3, §4

PR10-12 [3] = test: ANS displacement assay; assay type: binding, Papaver somniferum; conditions: for IC50 / Log10IC50: 10 µM protein and 10 µM ANS, CBS pH 5.5; for Kd: from average IC50 and PR10-ANS Kd, competitive inhibition assumed, read-out: Estimated Kd
Excerpt: as §3, §4

PR10-12 [4] = test: Isothermal titration calorimetry; assay type: binding, Papaver somniferum; conditions: ITC, PBS pH 7.4, 25 °C, single-site model
Procedure: ITC experiments were conducted using a Microcal VP instrument (Malvern Pananalytical, Malvern, UK). Recombinant MLP/PR10 protein preparation involving production in Escherichia coli followed by cobalt-affinity chromatography was optimized to yield relatively high purity in a single step as determined by SDS-PAGE and colloidal Coomassie blue silver staining. The less than 48 h decrease in atmospheric oxygen exposure generated high-quality proteins with reduced precipitate. […] Eluates were twice dialysed to equilibrium (i.e., 10–12 h at 4 °C) against a 1000-fold (2–4 L) volume of PBS, pH 7.4 (25 mM sodium phosphate, 50 mM NaCl) or CBS, pH 5.5, resulting in a theoretical million-fold dilution of undesired small molecules (e.g., <0.2 µM imidazole). Dialysis was carried out in boiled Spectra/Por 1 6–8 kDa MWCO 0.32 ml/cm (Spectrum Labs, USA) tubing thoroughly washed with either buffer before use. The second 1000-fold volume of dialysis buffer was filtered and degassed using a reusable bottle-top filtration apparatus (Nalgene, USA) with disposable […] cellulose filters (VWR, Canada) prior to storage at 4 °C. Ligands were dissolved in the filtered dialysis buffer at 21 °C for approximately one hour, and any insoluble material was removed by repeated centrifugation at 21,000 × g for 10 min. No change in pH occurred following substrate addition. Prior to ITC, which was initiated immediately following dialysis, the protein solutions were centrifuged at 17,000 × g and 4 °C for 30 min. Any precipitate was separated from the remaining soluble protein fraction which was quantified by absorption at A280nm and diluted with filtered dialysis buffer immediately before use.
as §2, with “injections. Protein concentrations varied from 10 to 150 µM to achieve an optimal C value and curve shape valid for parameter calculation.” for “injections.”

THS2 [5] = molecular target: T4, THS2 (Papaver somniferum, UniProt A0A2U9GGW3); test: Isothermal titration calorimetry; assay type: binding; set-up: made in house; host or cells: E. coli ArcticExpress (DE3); conditions: ITC, PBS pH 7.4, 25 °C
Procedure: as §1, §2

NISO [6] = molecular target: T3, NISO; test: Isothermal titration calorimetry; assay type: binding; set-up: made in house; host or cells: E. coli ArcticExpress (DE3); conditions: ITC, PBS pH 7.4, 25 °C
Procedure: as §1, §2

[7] = Ligand solubility threshold in ITC buffer; assay type: physicochemical; conditions: filtered dialysis buffer (CBS, 21 °C, aqueous buffer, thermodynamic from solid); pH 5.5, ITC buffer
Procedure: ITC experiments were conducted using a Microcal VP instrument (Malvern Pananalytical, Malvern, UK). Recombinant MLP/PR10 protein preparation involving production in Escherichia coli followed by cobalt-affinity chromatography was optimized to yield relatively high purity in a single step as determined by SDS-PAGE and colloidal Coomassie blue silver staining. The less than 48 h decrease in atmospheric oxygen exposure generated high-quality proteins with reduced precipitate. […] Eluates were twice dialysed to equilibrium (i.e., 10–12 h at 4 °C) against a 1000-fold (2–4 L) volume of PBS, pH 7.4 (25 mM sodium phosphate, 50 mM NaCl) or CBS, pH 5.5, resulting in a theoretical million-fold dilution of undesired small molecules (e.g., <0.2 µM imidazole). […] Any precipitate was separated from the remaining soluble protein fraction which was quantified by absorption at A280nm and diluted with filtered dialysis buffer immediately before use.
Thermograms were recorded at 25 °C, with a reference power of 10 (dpu/sec) and monitoring of 30 injections of 9 µl BIA ligand solutions into a sample cell containing 1.4 ml of an MLP/PR10 protein solution, with 300 seconds between injections. […] After subtraction, binding isotherms were analyzed in MicroCal Origin 7 (MicroCal, USA) by fitting a single-site binding model using non-linear least squares regression analysis repeated until convergence. […]

PR10-10 [8] = molecular target: T1, PR10-10; test: ANS displacement assay; assay type: binding; conditions: ANS displacement dose-response fit
Excerpt: as §3, §4

THS2 [9] = molecular target: T4, THS2; test: ANS displacement assay
Procedure: as §5, §6

[10] = Sucrose density-gradient fractionation of Przemko latex with exogenous alkaloid; set-up: species or system Papaver somniferum; conditions: exogenous alkaloid (420-460 mM) added to 80 µL Przemko latex, 14-66% sucrose gradient
Procedure: Sucrose solutions (66%, 58%, 46%, 38%, 30%, 24 and 14% [w/v]) were prepared in 50 mM HEPES, pH 7.0, containing 5 mM EDTA. Continuous sucrose density gradients were prepared by layering the solutions (3 mL of 66, 58 and 46%, 6 mL of 38%, and 7 mL of 30, 24 and 14% [w/v] sucrose) in 38-mL thin-wall ultracentrifuge tubes (Beckman Coulter, USA) followed by equilibration at 4 °C for 24 h. Fresh latex (80 µL) was collected from decapitated unripe seed capsules in 1.5-mL microcentrifuge tubes and stored on ice for immediate loading on the sucrose gradients. […] Samples were incubated on ice for 30 min then diluted in 2 mL of latex suspension buffer (500 mM mannitol, 50 mM HEPES, pH 7.0, 5 mM EDTA, 1 mM PMSF) and layered onto sucrose density gradients, which were then centrifuged in an AH-629 rotor (Sorvall, USA) for 3 h at 100,000 × g at 4 °C. The bottom of the ultracentrifuge tube was punctured by a flame-heated 21 G needle and a total of 22 fractions (~1.7 mL) were collected manually. The refractive index of each fraction was measured by a digital refractometer (Reichert, USA) and converted to density. Protein concentration was determined by Bradford assay (BioRad, USA) and samples were stored at −80 °C until use.

[11] = CBS pH 5.5, printed in brackets beside *, read-out: Kd (estimate, low enthalpy system)

T3 sequence (P0DYP9 entry or part of it): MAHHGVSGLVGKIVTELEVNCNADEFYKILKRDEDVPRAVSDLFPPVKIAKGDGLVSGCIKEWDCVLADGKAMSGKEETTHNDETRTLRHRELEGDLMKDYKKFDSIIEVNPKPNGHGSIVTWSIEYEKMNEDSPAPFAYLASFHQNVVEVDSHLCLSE
T4 sequence (A0A2U9GGW3 whole entry): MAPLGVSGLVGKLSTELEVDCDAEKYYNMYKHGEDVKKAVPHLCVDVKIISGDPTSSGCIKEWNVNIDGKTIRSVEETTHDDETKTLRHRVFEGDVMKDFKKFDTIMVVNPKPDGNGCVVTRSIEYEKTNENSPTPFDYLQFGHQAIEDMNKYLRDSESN

SMILES | Kd (PR10-10 [1]; [11]) [µM] | Kd (MLP15) [µM] | IC50 (MLP15) [µM] | Log10IC50 (MLP15) | Hill Slope (MLP15) | Kd (NISO [2]) [µM] | IC50 (NISO [2]) | Log10IC50 (NISO [2]) | Hill Slope (NISO [2]) | IC50 (MLP2) [µM] | Log10IC50 (MLP2) | Kd (MLP2) [µM] | IC50 (PR10-4) [µM] | Log10IC50 (PR10-4) | Kd (PR10-4) [µM] | IC50 (PR10-12 [3]) [µM] | Log10IC50 (PR10-12 [3]) | Kd (PR10-12 [3]) [µM] | further results
COc1cc2c(cc1OC)[C@@H]1Cc3ccc(OC)c(OC)c3CN1CC2 [Tetrahydropalmatine] | 180 ± 133 |  |  |  |  |  |  |  |  |  |  |  |  |  |  |  |  |  | 
COC1=CC=C2[C@H]3Cc4ccc(OC)c5c4[C@@]2(CCN3C)[C@H]1O5 [Thebaine, thebaine] |  | 612 | 690 | 2.84 ± 0.23 | -1.05 ± 0.19 | 171 | 199 µM and 200 µM | 2.30 ± 0.14 | 0.92 ± 0.16 | 394 | 2.60 ± 0.20 | 292 | 2570 | 3.41 ± 1.42 | 2350 | 445 | 2.65 ± 0.21 | 432 | Kd (PR10-12 [4]): 21.6 ± 0.71 µM; Kd (PR10-12 [4]; listed as thebaine): 22 µM; ΔH (THS2 [5]): 2.45 ± 0.09784 kcal/mol; ΔS (THS2 [5]): 28.8 cal/mol/˚K; N (THS2 [5]; single-site model): 0.523 ± 0.0156; Kd (THS2 [5]; Kd, single-site model): 31 µM and 31.2 µM; ΔH (NISO [6]): -2.396 ± 0.1109 kcal/mol; ΔS (NISO [6]): 13.6 cal/mol/˚K; N (NISO [6]; single-site model): 0.786 ± 0.0251; Kd (NISO [6]; Kd, single-site model): 18 µM and 18.2 µM
COc1ccc(Cc2nccc3cc(OC)c(OC)cc23)cc1OC [Papaverine, papaverine] | 225 | 265 | 299 | 2.48 ± 0.08 | -1.21 ± 0.08 | 82 | 96 µM and 95.5 µM | 1.98 ± 0.05 | -1.20 ± 0.05 | 61.4 | 1.79 ± 0.07 | 45.5 | 41.7 | 1.62 ± 0.05 | 38.1 | 158 | 2.20 ± 0.09 | 154 | solubility [7]: 1200 µM (≈ 407 µg/mL); heat change of protein-ligand interaction after subtraction of the blank (PR10-10 [1]; ITC thermogram, pH 5.5): -0.2 µcal/s; Kd (PR10-10 [1]; CBS buffer, Fig. 4b prints no unit, read-out: Kd): ~225 µM; Hill Slope (PR10-10 [8]): -0.36 ± 0.27; Kd (THS2 [9]): 333 µM; IC50 (THS2 [9]; IC50, THS2, 10 µM protein and 10 µM ANS, CBS pH 5.5): 493 µM; Log10IC50 (THS2 [9]; THS2, 10 µM protein and 10 µM ANS, CBS pH 5.5): 2.69 ± 0.71; Hill Slope (THS2 [9]; THS2, ANS displacement dose-response fit): -0.88 ± 0.34; formation of dense aggregate bands in gradient [10]: one or more visibly insoluble dense aggregate bands

— PMC9646721, “Alkaloid binding to opium poppy major latex proteins triggers structural modification and functional aggregation” (Nature Communications, 2022)
